Measurements from patent US10266537B2, “3-acetylenyl-pyrazole-pyrimidine derivative, and preparation method therefor and uses thereof” (Si Chuan University, priority 2015, dated 2019).

Experiments:
[1] = test system: MM.1S; test: Cell proliferation inhibition assay (MTT); assay type: cell-based; conditions: Homo sapiens, MM1.S, 72 hours, read-out: Proliferation inhibitory activity IC50
Protocol: (§1) The cells were seeded in 96-well plates with 200 μL of cell suspension per well and incubated overnight in a cell culture medium with a cell concentration of 1 2×10^4 cells/mL. The next day, the supernatant was discarded (the suspension cell was centrifuged before it) and the cells were treated with gradient concentrations of the test compound, respectively. […] After 72 hours, add 20 μL of MTT reagent at a concentration of 5 mg/mL per well. After incubation for 2-4 h, the supernatant was discarded and 150 μL of DMSO was added to each well. […] Relative cell proliferation inhibition rate=([MUT]-[MUT])×100%/[MUT]. The experiment was repeated at least 3 times. Experimental data were expressed as mean, data statistics using t test, P<0.05 for the difference was statistically significant.

[2] = test system: PC-3; test: Cell proliferation inhibition assay (MTT); assay type: cell-based; conditions: Homo sapiens, 72 hours, read-out: Proliferation inhibitory activity IC50
Protocol: as §1

[3] = molecular target: WNK3(h) (Homo sapiens (Human), UniProt Q9BYP7); test: Kinase inhibition assay (KinaseProfiler, 33P-ATP); assay type: biochemical; conditions: read-out: The percentage of the remaining active protein
Sequence of WNK3(h) (Q9BYP7 whole entry): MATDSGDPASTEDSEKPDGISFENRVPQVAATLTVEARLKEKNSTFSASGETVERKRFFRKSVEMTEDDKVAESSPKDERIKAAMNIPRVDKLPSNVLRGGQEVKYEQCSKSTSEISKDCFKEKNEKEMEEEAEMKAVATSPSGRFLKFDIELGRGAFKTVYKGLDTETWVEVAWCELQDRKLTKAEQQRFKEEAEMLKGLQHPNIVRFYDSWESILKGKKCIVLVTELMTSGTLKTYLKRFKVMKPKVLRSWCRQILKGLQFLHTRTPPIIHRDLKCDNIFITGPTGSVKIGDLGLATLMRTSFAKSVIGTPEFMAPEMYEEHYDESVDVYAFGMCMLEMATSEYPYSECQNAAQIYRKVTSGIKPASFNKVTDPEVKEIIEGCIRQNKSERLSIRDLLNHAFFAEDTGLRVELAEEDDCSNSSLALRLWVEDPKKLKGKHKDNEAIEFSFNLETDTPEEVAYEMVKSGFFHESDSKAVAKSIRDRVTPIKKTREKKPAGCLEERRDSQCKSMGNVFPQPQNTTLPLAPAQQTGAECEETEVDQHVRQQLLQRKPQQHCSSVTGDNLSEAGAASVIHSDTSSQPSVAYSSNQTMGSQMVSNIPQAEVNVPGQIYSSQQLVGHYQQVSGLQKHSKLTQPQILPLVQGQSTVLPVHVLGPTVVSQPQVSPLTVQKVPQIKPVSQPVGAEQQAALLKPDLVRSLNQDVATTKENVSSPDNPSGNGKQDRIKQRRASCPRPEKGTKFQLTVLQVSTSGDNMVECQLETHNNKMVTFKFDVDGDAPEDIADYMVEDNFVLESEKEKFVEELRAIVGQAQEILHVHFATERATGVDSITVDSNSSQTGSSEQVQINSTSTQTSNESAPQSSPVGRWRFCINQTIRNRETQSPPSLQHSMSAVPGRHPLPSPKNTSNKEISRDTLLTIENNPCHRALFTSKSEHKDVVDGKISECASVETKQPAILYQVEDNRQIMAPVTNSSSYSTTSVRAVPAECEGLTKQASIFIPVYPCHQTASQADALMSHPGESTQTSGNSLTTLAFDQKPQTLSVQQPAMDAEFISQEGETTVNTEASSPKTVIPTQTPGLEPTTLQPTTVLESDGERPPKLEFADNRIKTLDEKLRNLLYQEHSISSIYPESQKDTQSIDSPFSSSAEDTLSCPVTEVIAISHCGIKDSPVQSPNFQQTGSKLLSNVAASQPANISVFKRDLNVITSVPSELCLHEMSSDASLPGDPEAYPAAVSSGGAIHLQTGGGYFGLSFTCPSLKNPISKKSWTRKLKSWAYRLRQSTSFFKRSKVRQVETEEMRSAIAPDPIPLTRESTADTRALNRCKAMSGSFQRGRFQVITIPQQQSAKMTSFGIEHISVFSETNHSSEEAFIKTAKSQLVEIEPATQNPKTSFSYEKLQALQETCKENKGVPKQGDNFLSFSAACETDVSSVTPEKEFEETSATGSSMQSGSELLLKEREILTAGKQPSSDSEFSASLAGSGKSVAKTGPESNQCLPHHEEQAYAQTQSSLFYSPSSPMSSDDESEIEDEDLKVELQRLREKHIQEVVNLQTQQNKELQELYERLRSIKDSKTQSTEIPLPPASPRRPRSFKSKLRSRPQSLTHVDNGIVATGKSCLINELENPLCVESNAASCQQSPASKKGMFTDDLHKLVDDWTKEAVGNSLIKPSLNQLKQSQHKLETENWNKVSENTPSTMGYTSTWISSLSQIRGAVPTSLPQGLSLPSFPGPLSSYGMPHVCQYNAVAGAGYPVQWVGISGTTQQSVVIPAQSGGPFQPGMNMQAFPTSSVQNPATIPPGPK

[4] = molecular target: MuSK(h) (Homo sapiens (Human), UniProt O15146); test: Kinase inhibition assay (KinaseProfiler, 33P-ATP); assay type: biochemical; conditions: read-out: The percentage of the remaining active protein
[5] = molecular target: PKD2(h) (Homo sapiens (Human), UniProt Q9BZL6); test: Kinase inhibition assay (KinaseProfiler, 33P-ATP); assay type: biochemical; conditions: read-out: The percentage of the remaining active protein
[6] = molecular target: CLK4(h) (Homo sapiens (Human), UniProt Q9HAZ1); test: Kinase inhibition assay (KinaseProfiler, 33P-ATP); assay type: biochemical; conditions: read-out: The percentage of the remaining active protein
[7] = molecular target: EGFR(L861Q)(h) (Homo sapiens (Human), UniProt P00533, L861Q); test: Kinase inhibition assay (KinaseProfiler, 33P-ATP); assay type: biochemical; conditions: read-out: The percentage of the remaining active protein
[8] = molecular target: CaMKIV(h) (Homo sapiens (Human), UniProt Q16566); test: Kinase inhibition assay (KinaseProfiler, 33P-ATP); assay type: biochemical; conditions: read-out: The percentage of the remaining active protein
[9] = molecular target: PKBγ(h) (Homo sapiens (Human), UniProt Q9Y243); test: Kinase inhibition assay (KinaseProfiler, 33P-ATP); assay type: biochemical; conditions: read-out: The percentage of the remaining active protein
[10] = molecular target: Ret (V804L)(h) (Homo sapiens (Human), UniProt P07949, V804L); test: Kinase inhibition assay (KinaseProfiler, 33P-ATP); assay type: biochemical; conditions: read-out: The percentage of the remaining active protein
[11] = molecular target: cSRC(h) (Homo sapiens (Human), UniProt P12931); test: Kinase inhibition assay (KinaseProfiler, 33P-ATP); assay type: biochemical; conditions: 10 μM, read-out: The percentage of the remaining active protein
[12] = molecular target: TrkC(h) (Homo sapiens (Human), UniProt Q16288); test: Kinase inhibition assay (KinaseProfiler, 33P-ATP); assay type: biochemical; conditions: read-out: The percentage of the remaining active protein
Sequence of TrkC(h) (Q16288 32-839): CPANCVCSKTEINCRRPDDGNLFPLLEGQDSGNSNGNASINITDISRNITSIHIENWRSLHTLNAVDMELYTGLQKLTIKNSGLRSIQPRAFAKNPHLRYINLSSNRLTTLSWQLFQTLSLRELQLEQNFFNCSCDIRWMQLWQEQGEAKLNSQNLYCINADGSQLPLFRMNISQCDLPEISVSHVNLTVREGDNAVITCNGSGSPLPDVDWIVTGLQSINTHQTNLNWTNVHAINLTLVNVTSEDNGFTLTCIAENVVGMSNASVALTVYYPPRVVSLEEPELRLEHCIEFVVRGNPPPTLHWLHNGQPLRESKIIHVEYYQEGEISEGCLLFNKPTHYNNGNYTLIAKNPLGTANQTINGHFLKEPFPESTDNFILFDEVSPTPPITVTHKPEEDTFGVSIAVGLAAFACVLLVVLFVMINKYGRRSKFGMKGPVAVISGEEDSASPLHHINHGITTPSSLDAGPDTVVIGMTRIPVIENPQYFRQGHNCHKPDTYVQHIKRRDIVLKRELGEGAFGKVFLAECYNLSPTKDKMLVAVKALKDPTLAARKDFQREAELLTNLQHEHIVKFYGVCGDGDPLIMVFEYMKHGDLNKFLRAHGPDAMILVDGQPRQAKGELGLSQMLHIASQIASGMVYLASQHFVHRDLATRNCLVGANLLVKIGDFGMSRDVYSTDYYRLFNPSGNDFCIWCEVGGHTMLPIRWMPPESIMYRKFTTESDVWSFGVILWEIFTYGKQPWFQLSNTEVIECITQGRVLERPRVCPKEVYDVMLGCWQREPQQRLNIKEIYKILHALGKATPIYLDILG

[13] = molecular target: Pim-2(h) (Homo sapiens (Human), UniProt Q9P1W9); test: Kinase inhibition assay (KinaseProfiler, 33P-ATP); assay type: biochemical; conditions: read-out: The percentage of the remaining active protein
Sequence of Pim-2(h) (Q9P1W9 whole entry): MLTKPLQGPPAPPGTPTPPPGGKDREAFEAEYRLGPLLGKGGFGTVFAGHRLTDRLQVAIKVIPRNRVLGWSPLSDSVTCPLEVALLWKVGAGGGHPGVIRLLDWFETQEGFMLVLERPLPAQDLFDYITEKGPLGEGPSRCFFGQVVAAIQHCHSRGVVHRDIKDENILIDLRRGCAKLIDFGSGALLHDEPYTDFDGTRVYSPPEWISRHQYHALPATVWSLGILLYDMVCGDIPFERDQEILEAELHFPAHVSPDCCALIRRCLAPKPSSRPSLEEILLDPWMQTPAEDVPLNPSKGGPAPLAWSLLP

[14] = molecular target: NEK9(h) (Homo sapiens (Human), UniProt Q8TD19); test: Kinase inhibition assay (KinaseProfiler, 33P-ATP); assay type: biochemical; conditions: read-out: The percentage of the remaining active protein
[15] = molecular target: LRRK2(h) (Homo sapiens (Human), UniProt Q5S007); test: Kinase inhibition assay (KinaseProfiler, 33P-ATP); assay type: biochemical; conditions: read-out: The percentage of the remaining active protein
[16] = molecular target: mTOR/FKBP12(h) (Homo sapiens (Human), UniProt P42345); test: Kinase inhibition assay (KinaseProfiler, 33P-ATP); assay type: biochemical; conditions: read-out: The percentage of the remaining active protein
[17] = molecular target: PI3 Kinase (p110a(H1047R)/p85a)(m) (Mus musculus (Mouse), UniProt P42337, H1047R); test: Kinase inhibition assay (KinaseProfiler, 33P-ATP); assay type: biochemical; conditions: read-out: The percentage of the remaining active protein
[18] = molecular target: HIPK1(h) (Homo sapiens (Human), UniProt Q86Z02); test: Kinase inhibition assay (KinaseProfiler, 33P-ATP); assay type: biochemical; conditions: read-out: The percentage of the remaining active protein
[19] = molecular target: Aurora-C(h) (Homo sapiens (Human), UniProt Q9UQB9); test: Kinase inhibition assay (KinaseProfiler, 33P-ATP); assay type: biochemical; conditions: read-out: The percentage of the remaining active protein
[20] = molecular target: MST3(h) (Homo sapiens (Human), UniProt Q9Y6E0); test: Kinase inhibition assay (KinaseProfiler, 33P-ATP); assay type: biochemical; conditions: read-out: The percentage of the remaining active protein
[21] = molecular target: SGK2(h) (Homo sapiens (Human), UniProt Q9HBY8); test: Kinase inhibition assay (KinaseProfiler, 33P-ATP); assay type: biochemical; conditions: read-out: The percentage of the remaining active protein
Sequence of SGK2(h) (Q9HBY8 whole entry): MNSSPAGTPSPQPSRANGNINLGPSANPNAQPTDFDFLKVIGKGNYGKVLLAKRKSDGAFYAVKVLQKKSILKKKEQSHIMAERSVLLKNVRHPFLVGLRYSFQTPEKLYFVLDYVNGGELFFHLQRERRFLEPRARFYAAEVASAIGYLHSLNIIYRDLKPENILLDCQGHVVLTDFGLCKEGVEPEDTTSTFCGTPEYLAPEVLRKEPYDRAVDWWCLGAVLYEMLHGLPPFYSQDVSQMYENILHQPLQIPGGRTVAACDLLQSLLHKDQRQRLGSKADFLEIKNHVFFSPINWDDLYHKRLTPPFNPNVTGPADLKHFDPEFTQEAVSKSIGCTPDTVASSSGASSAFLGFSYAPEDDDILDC

[22] = molecular target: GRK7(h) (Homo sapiens (Human), UniProt Q8WTQ7); test: Kinase inhibition assay (KinaseProfiler, 33P-ATP); assay type: biochemical; conditions: read-out: The percentage of the remaining active protein
[23] = molecular target: cKit (D816H) (Homo sapiens (Human), UniProt P10721, D816H); test: Kinase inhibition assay (KinaseProfiler, 33P-ATP); assay type: biochemical; conditions: cKit(D816H)(h), read-out: The percentage of the remaining active protein
[24] = molecular target: PI3 Kinase (p110a(E545K)/p85a)(h) (Homo sapiens (Human), UniProt P42336, E545K); test: Kinase inhibition assay (KinaseProfiler, 33P-ATP); assay type: biochemical; conditions: read-out: The percentage of the remaining active protein
[25] = molecular target: IGF-1R(h) (Homo sapiens (Human), UniProt P08069); test: Kinase inhibition assay (KinaseProfiler, 33P-ATP); assay type: biochemical; conditions: read-out: The percentage of the remaining active protein
[26] = molecular target: BTK(R28H)(h) (Homo sapiens (Human), UniProt Q06187, R28H); test: Kinase inhibition assay (KinaseProfiler, 33P-ATP); assay type: biochemical; conditions: read-out: The percentage of the remaining active protein
[27] = molecular target: CHK2(I157T)(h) (Homo sapiens (Human), UniProt O96017, I157T); test: Kinase inhibition assay (KinaseProfiler, 33P-ATP); assay type: biochemical; conditions: read-out: The percentage of the remaining active protein
[28] = molecular target: HIPK2(h) (Homo sapiens (Human), UniProt Q9H2X6); test: Kinase inhibition assay (KinaseProfiler, 33P-ATP); assay type: biochemical; conditions: read-out: The percentage of the remaining active protein
[29] = molecular target: ErbB4 (Homo sapiens (Human), UniProt Q15303); test: Kinase inhibition assay (KinaseProfiler, 33P-ATP); assay type: biochemical; conditions: ErbB4(h), read-out: The percentage of the remaining active protein
Sequence of ErbB4 (Q15303 26-1308): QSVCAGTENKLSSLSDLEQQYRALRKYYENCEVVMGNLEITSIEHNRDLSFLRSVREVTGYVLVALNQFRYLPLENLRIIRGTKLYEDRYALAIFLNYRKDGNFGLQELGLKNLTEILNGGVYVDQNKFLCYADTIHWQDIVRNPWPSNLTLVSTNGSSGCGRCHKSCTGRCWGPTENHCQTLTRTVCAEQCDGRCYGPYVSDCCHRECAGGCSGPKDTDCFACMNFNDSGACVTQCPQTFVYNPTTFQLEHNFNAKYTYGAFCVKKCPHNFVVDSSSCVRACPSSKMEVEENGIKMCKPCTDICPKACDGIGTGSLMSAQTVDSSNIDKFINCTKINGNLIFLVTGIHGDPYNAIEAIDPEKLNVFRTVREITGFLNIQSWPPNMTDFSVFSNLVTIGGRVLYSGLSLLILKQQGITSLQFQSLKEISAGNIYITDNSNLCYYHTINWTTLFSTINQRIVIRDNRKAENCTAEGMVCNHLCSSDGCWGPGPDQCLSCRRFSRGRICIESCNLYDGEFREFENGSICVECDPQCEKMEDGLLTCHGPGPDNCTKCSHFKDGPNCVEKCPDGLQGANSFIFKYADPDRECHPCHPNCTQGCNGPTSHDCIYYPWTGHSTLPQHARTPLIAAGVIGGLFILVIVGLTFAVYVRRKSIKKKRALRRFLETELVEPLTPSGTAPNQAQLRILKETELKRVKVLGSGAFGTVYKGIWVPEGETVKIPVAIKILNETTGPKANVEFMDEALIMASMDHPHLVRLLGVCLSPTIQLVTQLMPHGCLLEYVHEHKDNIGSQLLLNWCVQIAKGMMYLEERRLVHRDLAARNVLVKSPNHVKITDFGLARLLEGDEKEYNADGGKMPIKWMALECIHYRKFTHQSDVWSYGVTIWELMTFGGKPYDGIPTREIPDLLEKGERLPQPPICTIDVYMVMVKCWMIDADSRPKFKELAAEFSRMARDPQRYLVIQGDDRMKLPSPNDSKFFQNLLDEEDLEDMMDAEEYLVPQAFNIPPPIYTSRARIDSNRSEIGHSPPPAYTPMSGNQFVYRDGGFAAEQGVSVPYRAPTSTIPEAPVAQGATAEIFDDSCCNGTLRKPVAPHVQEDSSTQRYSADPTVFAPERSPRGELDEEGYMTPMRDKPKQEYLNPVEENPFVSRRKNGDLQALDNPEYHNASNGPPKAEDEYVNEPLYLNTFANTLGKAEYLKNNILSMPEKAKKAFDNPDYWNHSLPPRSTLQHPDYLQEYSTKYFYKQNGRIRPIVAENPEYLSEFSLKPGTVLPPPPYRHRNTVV

[30] = molecular target: p70S6K(h) (Homo sapiens (Human), UniProt P23443); test: Kinase inhibition assay (KinaseProfiler, 33P-ATP); assay type: biochemical; conditions: read-out: The percentage of the remaining active protein
[31] = molecular target: MSK2(h) (Homo sapiens (Human), UniProt O75676); test: Kinase inhibition assay (KinaseProfiler, 33P-ATP); assay type: biochemical; conditions: read-out: The percentage of the remaining active protein
[32] = molecular target: LIMK1 (Homo sapiens (Human), UniProt P53667); test: biochemical; conditions: read-out: The percentage of the remaining active protein
[33] = molecular target: CSK (Homo sapiens (Human), UniProt P41240); test: Kinase inhibition assay (KinaseProfiler, 33P-ATP); assay type: biochemical
Sequence of CSK (P41240 whole entry): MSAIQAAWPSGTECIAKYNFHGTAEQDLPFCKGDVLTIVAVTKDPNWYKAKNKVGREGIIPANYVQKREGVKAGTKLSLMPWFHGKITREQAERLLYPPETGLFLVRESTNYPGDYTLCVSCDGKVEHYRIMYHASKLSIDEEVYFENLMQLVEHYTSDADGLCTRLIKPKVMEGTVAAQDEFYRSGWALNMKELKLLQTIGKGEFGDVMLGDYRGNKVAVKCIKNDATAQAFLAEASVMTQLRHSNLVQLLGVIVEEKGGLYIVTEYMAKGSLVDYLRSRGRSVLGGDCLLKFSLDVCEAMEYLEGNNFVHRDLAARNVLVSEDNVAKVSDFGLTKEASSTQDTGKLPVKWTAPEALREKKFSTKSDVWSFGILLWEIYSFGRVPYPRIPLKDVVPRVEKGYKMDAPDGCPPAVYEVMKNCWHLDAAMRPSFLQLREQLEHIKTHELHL

[34] = molecular target: A-Raf(h) (Homo sapiens (Human), UniProt P10398); test: Kinase inhibition assay (KinaseProfiler, 33P-ATP); assay type: biochemical; conditions: read-out: The percentage of the remaining active protein
[35] = molecular target: DAPK2(h) (Homo sapiens (Human), UniProt Q9UIK4); test: Kinase inhibition assay (KinaseProfiler, 33P-ATP); assay type: biochemical; conditions: read-out: The percentage of the remaining active protein

`Cc1ccc(NC(=O)c2cccc(C(F)(F)F)c2)cc1C#Cc1nn(C2CCN(C)CC2)c2ncnc(N)c12` [Compound 31] gave an IC50 [1] of 2380 nM and an IC50 [2] of 3970 nM.
`Cc1ccc(NC(=O)c2ccc(C)c(C(F)(F)F)c2)cc1C#Cc1nn([C@H]2CC[C@H](O)CC2)c2ncnc(N)c12` [Compound 93] was tested, and the remaining activity at 10 µM [3] was 39%, the remaining activity at 10 µM [4] was 70% and the remaining activity at 10 µM [5] was 108%. It also gave a remaining activity at 10 µM [6] of 58%, a remaining activity at 10 µM [7] of 0% and a remaining activity at 10 µM [8] of 93%. It also gave a remaining activity at 10 µM [9] of 94%, a remaining activity at 10 µM [10] of 1% and a remaining activity at 10 µM [11] of 0%. It also gave a remaining activity at 10 µM [12] of 17%, a remaining activity at 10 µM [13] of 112% and a remaining activity at 10 µM [14] of 59%. It also gave a remaining activity at 10 µM [15] of 15%, a remaining activity at 10 µM [16] of 119% and a remaining activity at 10 µM [17] of 94%. For the same compound, the remaining activity at 10 µM [18] was 107%, the remaining activity at 10 µM [19] was 101% and the remaining activity at 10 µM [20] was 114%. The remaining activity at 10 µM [21] was 97%, the remaining activity at 10 µM [22] was 101% and the remaining activity at 10 µM [23] was 1%. For the same compound, the remaining activity at 10 µM [24] was 92%, the remaining activity at 10 µM [25] was 66% and the remaining activity at 10 µM [26] was 71%. It also gave a remaining activity at 10 µM [27] of 103%, a remaining activity at 10 µM [28] of 99% and a remaining activity at 10 µM [29] of -3%. For the same compound, the remaining activity at 10 µM [30] was 33%, the remaining activity at 10 µM [31] was 70% and the remaining activity at 10 µM [32] was 5%. It also gave a remaining activity at 10 µM ([33]; CSK(h), 10 μM, read-out: The percentage of the remaining active protein) of -1%, an IC50 ([33]; CSK, ATP at Km) of 9 nM and a remaining activity at 10 µM [34] of 7%. The remaining activity at 10 µM [35] was 95%.
